Test results as given in article PMC10275055, “Preventing recurrence in Sonic Hedgehog Subgroup Medulloblastoma using the OLIG2 inhibitor CT-179” (Research Square, 2023).
Where two headings read alike, the source gives them in different places.

Experiments:
[1] = In vivo pharmacokinetic studies of CT-179 in mice, plasma and brain; design: species or system mice (C57Bl/J6); settings: mouse; for bioavailability: in vivo, po, PO 20 mg/kg vs IV 1 mg/kg
Description: The in vivo pharmacokinetic studies (EXT-240 and EXT-241) were performed under contract by Biodura Inc.

Daoy cells = test: Apoptosis and cell cycle analysis in Daoy cells; assay type: cell-based, human; settings: 1 μM
Description: (§1) Cell proliferation was determined by a CellTiter 96® Non-Radioactive Cell Proliferation Assay (Promega) kit. Absorbance at 490 nm was measured on a Biotek PowerWave (Biotek, USA) plate scanner to obtain raw data. Average absorbance from triplicate wells were plotted against concentration using GraphPad Prism software v.7.0 (GraphPad software). At the indicated time points, cells were stained using FITC-conjugated Annexin V and Annexin V binding buffer (BD Pharmingen™) according to the manufacturer’s instructions. Annexin V or propidium iodide (PI)-positive cells were analyzed using a Fortessa 5 Flow Cytometer (Becton Dickinson) and data was analyzed using FlowJo® software (Tree Star).
Cell cycle analysis was performed as descried previously. Cells were fixed with 70% ice-cold ethanol and subsequently stained with PI and analyzed using a Fortessa 5 Flow Cytometer (Becton Dickinson) and data was analyzed using FlowJo® software (Tree Star).

[2] = target: T1, Fetal Liver Tyrosine Kinase 3 (FLT3) (Homo sapiens, UniProt P36888); test: Kinase profiling (KINOMEscan / SelectScreen) and dose response follow-up, FLT3; assay type: biochemical; settings: ATP equal to Km
T1 sequence (P36888 27-993): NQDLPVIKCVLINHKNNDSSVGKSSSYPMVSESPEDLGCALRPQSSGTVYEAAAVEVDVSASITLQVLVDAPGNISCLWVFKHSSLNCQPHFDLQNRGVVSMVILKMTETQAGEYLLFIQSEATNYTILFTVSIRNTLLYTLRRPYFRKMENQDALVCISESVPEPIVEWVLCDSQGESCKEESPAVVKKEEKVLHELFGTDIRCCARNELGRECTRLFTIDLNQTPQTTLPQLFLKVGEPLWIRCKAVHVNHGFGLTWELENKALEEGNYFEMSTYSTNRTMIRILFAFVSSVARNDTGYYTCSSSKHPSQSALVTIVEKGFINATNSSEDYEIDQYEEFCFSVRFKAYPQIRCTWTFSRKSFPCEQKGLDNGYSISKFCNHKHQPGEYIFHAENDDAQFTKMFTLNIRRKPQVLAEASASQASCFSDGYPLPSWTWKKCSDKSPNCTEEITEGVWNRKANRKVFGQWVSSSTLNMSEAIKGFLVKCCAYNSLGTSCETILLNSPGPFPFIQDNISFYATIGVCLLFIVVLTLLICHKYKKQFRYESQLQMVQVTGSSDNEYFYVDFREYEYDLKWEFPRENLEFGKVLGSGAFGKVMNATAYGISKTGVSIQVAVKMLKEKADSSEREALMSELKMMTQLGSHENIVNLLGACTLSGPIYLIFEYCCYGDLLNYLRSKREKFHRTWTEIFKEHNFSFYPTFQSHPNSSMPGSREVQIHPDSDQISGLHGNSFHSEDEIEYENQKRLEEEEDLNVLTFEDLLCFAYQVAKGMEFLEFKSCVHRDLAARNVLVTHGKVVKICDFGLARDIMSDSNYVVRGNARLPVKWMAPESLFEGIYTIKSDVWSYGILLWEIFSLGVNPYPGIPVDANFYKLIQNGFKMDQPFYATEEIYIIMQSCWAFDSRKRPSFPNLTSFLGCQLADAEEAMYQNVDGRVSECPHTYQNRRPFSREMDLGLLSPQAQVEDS
Description: (§2) Effect of CT-179 on protein kinase activity was evaluated using the Thermofisher Scientific SelectScreen Kinase Profiling Service. Over 400 human protein kinases were tested in the presence of 1 μM final concentration of CT-179 at an ATP concentration equal to the known ATP Km for each kinase. The experiment was done by Curtana Pharmaceuticals. Data is presented as percentage of inhibition of enzyme activity. Software CORAL was used to make the kinome tree, which is available from: http://phanstiel-lab.med.unc.edu/CORAL/.

Daoy MB cell line = test: Cell viability, 7 days treatment, Daoy; assay type: cell-based; settings: Homo sapiens, 168 h
Description: as §1

U87-MG glioma cells = test: Cell viability, OLIG2-negative U87-MG; assay type: cell-based; settings: does not express OLIG2
Description: as §1

KIT = KIT (Homo sapiens, UniProt P10721); test: Kinase profiling (KINOMEscan / SelectScreen), KIT; assay type: biochemical; settings: ATP equal to Km
Sequence of KIT (P10721 26-976): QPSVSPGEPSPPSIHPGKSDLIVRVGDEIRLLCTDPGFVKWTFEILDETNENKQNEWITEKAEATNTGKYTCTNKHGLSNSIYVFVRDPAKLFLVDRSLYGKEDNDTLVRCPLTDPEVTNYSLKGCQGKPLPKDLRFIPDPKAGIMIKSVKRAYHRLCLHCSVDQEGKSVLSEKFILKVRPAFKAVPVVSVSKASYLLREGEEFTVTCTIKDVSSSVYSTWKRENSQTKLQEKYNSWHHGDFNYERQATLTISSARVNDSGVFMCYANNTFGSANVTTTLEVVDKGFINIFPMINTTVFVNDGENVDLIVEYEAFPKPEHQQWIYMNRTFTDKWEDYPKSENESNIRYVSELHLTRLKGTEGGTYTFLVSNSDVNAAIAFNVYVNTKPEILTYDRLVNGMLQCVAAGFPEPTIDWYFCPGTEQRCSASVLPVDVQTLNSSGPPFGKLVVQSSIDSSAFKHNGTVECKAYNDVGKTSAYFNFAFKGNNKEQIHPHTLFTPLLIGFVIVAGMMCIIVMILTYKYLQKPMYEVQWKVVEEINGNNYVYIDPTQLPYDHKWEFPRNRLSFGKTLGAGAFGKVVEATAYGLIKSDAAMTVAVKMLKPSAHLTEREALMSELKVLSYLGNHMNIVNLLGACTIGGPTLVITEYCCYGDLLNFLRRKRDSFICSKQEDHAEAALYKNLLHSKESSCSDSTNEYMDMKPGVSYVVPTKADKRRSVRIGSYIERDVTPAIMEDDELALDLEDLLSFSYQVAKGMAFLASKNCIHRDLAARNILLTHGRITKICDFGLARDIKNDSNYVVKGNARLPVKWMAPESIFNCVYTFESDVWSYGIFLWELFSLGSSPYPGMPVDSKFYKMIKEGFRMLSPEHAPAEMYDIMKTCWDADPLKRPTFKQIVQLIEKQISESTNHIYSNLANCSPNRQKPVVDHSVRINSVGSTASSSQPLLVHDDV
Description: as §2

HEK293 cells = test: Cell viability, OLIG2-negative HEK293; assay type: cell-based, human; settings: HEK293, does not express OLIG2
Description: as §1

Cc1cc(NCCCN(C)C)nc(NC(=O)Nc2ccc(Cl)c(Cl)c2)n1 [CT-179]
Kp at 4 h ([1]; brain, 4 hours after single PO dose, 20 mg/kg, read-out: brain to plasma (B/P) ratio, average): 6.72 | Kp ([1]; brain, second study, PO doses of 1 and 5 mg/Kg once daily, read-out: estimated brain to plasma ratio): > 10 | bioavailability ([1]; 20 mg/kg, read-out: bioavailability, mean): 75% | bioavailability ([1]; 20 mg/kg, read-out: bioavailability, range estimated): 58 to 91% | apoptosis (cleaved CASPASE-3, Annexin V) (Daoy cells): increased apoptosis | cell cycle effect (Daoy cells; 24 hours, single therapy): G2/M phase arrest | inhibition at 1 µM [2]: 84% | IC50 (Daoy MB cell line): 144 nM | growth suppression (U87-MG glioma cells): not suppressed | inhibition at 1 µM (KIT): 66% | growth suppression (HEK293 cells): not suppressed
